Measured values published in ChEMBL document CHEMBL1135889, “Novel 4-anilinoquinazolines with C-7 basic side chains: design and structure activity relationship of a series of potent, orally active, VEGF receptor tyrosine kinase inhibitors” (J Med Chem, 2002).
≈ marks a conversion by molar mass, not a printed value.

How the values were obtained:
[1] = target: Fibroblast growth factor receptor 1 (Homo sapiens, UniProt P11362)
Description: Inhibition fibroblast growth factor receptor TK kinase activity at a concentration of 2 uM

[2] = target: Vascular endothelial growth factor receptor 1 (Homo sapiens, UniProt P17948); experiment: Inhibition of fms-like tyrosine kinase receptor (Flt-1) kinase activity […] of ATP
HUVEC = experiment: Inhibition of basal unstimulated growth of human endothelial cell; type: functional, cell-based
[3] = target: Vascular endothelial growth factor receptor (Homo sapiens, UniProt P17948+P35916+P35968); experiment: Inhibition of human endothelial cell growth stimulate by vascular endothelial growth factor
[4] = target: Vascular endothelial growth factor receptor 2 (Homo sapiens, UniProt P35968); experiment: Inhibition of vascular endothelial growth factor receptor 2 kinase activity […]
[5] = target: Epidermal growth factor receptor (Homo sapiens, UniProt P00533); experiment: Inhibition of epidermal growth factor receptor kinase activity […] of ATP
[6] = Plasma levels following administration of 100 mg/Kg perorally and concentration in plasma 24 hr after administration; type: ADME, cell-free; conditions: po, read-out: Plasma level
[7] = Plasma levels following administration of 100 mg/Kg perorally and concentration in plasma 6 hr after administration; type: ADME, cell-free; conditions: po, read-out: Plasma level
[8] = (§1) Binding affinity to serum protein in rat; type: ADME, organism-based; conditions: read-out: %Bound_Plasma (converted)
Angiopoietin-1 receptor = Angiopoietin-1 receptor (Homo sapiens, UniProt Q02763); experiment: Inhibition of Tyrosine protein kinase TIE-2 at ATP <Km
[9] = target: T1, 3-phosphoinositide-dependent protein kinase 1 (Homo sapiens, UniProt O15530); experiment: Inhibition of receptor kinase activity against PDK (phospho-inositide dependent kinase) at ATP <Km
T1 sequence (O15530 whole entry): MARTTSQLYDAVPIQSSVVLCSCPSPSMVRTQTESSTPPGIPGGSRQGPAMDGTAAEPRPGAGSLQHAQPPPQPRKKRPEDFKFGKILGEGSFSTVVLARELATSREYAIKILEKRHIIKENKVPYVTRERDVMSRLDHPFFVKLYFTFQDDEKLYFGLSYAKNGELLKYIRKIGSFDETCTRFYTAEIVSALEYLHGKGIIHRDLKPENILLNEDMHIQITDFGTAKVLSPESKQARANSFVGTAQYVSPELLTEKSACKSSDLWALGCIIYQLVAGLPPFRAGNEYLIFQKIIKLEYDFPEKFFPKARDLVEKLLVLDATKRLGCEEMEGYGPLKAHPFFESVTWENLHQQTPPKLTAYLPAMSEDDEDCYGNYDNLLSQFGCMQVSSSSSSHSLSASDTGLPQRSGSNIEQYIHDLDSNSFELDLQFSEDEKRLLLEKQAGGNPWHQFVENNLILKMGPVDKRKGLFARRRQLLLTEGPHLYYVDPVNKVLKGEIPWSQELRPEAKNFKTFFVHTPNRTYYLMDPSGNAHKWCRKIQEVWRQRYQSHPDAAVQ

[10] = Bioavailability in rat after oral dose at 50 mg/kg free base; type: ADME, organism-based; conditions: in vivo
[11] = target: Serine/threonine-protein kinase AKT (Homo sapiens, UniProt P31751+Q9Y243+P31749); experiment: Inhibition of Protein kinase B (AKT) at ATP <Km; type: protein assay
[12] = Plasma levels following administration of 50 mg/Kg perorally and concentration in plasma 6 hr after administration; type: ADME, cell-free; conditions: po, read-out: Plasma level
physchem [13] = conditions: octanol/water, pH 7.4
[14] = solubility was determined using free base at pH 7.4; type: physicochemical; conditions: buffer
[15] = Pharmacokinetic parameter bioavailability in dog was reported after oral administration of 30 mg/Kg measured on free base; conditions: in vivo
[16] = (§2) Binding affinity of serum protein in mouse.; type: ADME, organism-based; conditions: read-out: %Bound_Plasma (converted)
[17] = Plasma levels following administration of 50 mg/Kg perorally and concentration of compound in plasma 24 hr after administration; type: ADME, cell-free; conditions: po, read-out: Plasma level
[18] = Pharmacokinetic parameters in dog, and clearance value reported after oral administration of 50 mg/Kg.; type: ADME, organism-based, Canis lupus familiaris; conditions: in vivo
[19] = target: Cyclin-dependent kinase 2 (Homo sapiens, UniProt P24941); experiment: Inhibition of Cyclin-dependent kinase 2 (CDK2) at ATP concentration <Km
[20] = pKa value at a pH of […].; type: physicochemical; conditions: pH 7.4
[21] = target: Receptor tyrosine-protein kinase erbB-2 (Homo sapiens, UniProt P04626); experiment: Inhibition of ERBB2 receptor kinase at ATP concentration <Km
[22] = Pharmacokinetic parameter half-life in rat was reported after intravenous administration of 5 mg/Kg measured on free base; conditions: in vivo
[23] = Pharmacokinetic parameter half-life in dog was reported after intravenous administration of 5 mg/Kg measured on free base; conditions: in vivo
[24] = target: Insulin-like growth factor 1 receptor (Homo sapiens, UniProt P08069); experiment: Inhibition of Insulin-like growth factor I receptor at ATP <Km
[25] = target: Dual specificity mitogen-activated protein kinase kinase; MEK1/2 (Homo sapiens, UniProt P36507+Q02750); experiment: Inhibition of Mitogen activated protein kinase (MEK) at ATP <Km; type: protein assay
Mus musculus = species: Mus musculus; experiment: as §2; type: functional, organism-based
Rattus norvegicus = species: Rattus norvegicus; experiment: as §1; type: functional
[26] = Plasma levels following administration of 50 mg/Kg perorally and concentration in plasma 24 hr after administration; type: ADME, cell-free; conditions: po, read-out: Plasma level
[27] = pKa value at a pH of […].value ranges from […]-[…].; type: physicochemical; conditions: pH 7.4
[28] = solubility was determined using free base at pH 7; type: physicochemical; conditions: buffer
physchem [29] = conditions: pH 7.4

Chain of Fibroblast growth factor receptor 1 (P11362 whole entry): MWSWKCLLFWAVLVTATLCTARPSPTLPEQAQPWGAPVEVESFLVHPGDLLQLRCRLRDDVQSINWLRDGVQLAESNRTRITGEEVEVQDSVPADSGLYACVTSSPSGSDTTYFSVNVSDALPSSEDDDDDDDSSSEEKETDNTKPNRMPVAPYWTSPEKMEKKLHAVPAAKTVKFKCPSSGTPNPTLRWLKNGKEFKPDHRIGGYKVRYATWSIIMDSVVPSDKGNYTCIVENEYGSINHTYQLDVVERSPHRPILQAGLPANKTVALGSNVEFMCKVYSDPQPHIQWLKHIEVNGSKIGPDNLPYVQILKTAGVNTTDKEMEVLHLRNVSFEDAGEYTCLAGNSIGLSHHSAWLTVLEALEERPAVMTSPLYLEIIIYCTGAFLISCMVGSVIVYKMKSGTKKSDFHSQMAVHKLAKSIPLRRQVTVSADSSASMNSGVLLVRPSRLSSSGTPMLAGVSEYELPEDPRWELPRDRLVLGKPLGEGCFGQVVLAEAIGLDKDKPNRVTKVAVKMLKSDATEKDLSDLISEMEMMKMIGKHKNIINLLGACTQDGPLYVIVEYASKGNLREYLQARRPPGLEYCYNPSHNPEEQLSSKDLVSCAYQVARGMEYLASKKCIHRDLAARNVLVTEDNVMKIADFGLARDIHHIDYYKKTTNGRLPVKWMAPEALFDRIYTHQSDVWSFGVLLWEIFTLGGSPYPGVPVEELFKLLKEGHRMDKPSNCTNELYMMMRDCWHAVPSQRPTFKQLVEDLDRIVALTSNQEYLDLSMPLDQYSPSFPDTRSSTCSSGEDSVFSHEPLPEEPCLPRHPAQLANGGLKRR
Chain of Vascular endothelial growth factor receptor 2 (P35968 whole entry): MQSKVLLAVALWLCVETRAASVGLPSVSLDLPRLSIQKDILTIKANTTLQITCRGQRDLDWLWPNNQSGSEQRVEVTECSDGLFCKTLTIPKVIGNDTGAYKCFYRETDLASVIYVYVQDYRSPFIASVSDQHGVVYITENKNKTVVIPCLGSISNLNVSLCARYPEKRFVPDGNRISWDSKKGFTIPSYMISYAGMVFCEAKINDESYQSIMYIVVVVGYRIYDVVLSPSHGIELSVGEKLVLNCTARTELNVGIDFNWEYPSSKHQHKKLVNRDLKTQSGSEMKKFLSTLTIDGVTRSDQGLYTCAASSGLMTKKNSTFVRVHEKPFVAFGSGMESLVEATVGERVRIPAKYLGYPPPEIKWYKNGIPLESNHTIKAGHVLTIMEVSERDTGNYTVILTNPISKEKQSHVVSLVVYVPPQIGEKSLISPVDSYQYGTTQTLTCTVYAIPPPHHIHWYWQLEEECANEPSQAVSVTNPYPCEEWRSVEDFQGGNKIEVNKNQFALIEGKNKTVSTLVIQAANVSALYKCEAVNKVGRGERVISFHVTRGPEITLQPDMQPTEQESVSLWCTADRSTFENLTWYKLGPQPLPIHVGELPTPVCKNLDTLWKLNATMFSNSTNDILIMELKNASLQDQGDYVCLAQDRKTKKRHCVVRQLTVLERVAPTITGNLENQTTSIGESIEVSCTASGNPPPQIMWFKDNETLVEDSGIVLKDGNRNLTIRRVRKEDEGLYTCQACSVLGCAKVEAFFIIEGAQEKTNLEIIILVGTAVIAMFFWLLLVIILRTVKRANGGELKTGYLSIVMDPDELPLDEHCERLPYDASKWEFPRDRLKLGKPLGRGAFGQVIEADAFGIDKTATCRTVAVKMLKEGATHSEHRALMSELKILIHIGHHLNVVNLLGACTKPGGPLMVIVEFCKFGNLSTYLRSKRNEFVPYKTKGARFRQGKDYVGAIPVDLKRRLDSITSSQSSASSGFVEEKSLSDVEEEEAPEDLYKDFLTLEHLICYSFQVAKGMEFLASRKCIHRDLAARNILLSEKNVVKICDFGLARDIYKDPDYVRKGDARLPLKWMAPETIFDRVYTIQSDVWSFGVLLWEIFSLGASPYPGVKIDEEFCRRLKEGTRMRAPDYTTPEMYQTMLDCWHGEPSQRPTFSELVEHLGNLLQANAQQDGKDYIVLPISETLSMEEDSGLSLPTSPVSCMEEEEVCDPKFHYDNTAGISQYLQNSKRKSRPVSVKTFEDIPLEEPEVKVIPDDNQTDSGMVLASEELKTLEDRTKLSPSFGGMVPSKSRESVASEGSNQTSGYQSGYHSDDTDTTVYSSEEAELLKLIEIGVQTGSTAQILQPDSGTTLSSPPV
Chain of Vascular endothelial growth factor receptor 1 (P17948 whole entry): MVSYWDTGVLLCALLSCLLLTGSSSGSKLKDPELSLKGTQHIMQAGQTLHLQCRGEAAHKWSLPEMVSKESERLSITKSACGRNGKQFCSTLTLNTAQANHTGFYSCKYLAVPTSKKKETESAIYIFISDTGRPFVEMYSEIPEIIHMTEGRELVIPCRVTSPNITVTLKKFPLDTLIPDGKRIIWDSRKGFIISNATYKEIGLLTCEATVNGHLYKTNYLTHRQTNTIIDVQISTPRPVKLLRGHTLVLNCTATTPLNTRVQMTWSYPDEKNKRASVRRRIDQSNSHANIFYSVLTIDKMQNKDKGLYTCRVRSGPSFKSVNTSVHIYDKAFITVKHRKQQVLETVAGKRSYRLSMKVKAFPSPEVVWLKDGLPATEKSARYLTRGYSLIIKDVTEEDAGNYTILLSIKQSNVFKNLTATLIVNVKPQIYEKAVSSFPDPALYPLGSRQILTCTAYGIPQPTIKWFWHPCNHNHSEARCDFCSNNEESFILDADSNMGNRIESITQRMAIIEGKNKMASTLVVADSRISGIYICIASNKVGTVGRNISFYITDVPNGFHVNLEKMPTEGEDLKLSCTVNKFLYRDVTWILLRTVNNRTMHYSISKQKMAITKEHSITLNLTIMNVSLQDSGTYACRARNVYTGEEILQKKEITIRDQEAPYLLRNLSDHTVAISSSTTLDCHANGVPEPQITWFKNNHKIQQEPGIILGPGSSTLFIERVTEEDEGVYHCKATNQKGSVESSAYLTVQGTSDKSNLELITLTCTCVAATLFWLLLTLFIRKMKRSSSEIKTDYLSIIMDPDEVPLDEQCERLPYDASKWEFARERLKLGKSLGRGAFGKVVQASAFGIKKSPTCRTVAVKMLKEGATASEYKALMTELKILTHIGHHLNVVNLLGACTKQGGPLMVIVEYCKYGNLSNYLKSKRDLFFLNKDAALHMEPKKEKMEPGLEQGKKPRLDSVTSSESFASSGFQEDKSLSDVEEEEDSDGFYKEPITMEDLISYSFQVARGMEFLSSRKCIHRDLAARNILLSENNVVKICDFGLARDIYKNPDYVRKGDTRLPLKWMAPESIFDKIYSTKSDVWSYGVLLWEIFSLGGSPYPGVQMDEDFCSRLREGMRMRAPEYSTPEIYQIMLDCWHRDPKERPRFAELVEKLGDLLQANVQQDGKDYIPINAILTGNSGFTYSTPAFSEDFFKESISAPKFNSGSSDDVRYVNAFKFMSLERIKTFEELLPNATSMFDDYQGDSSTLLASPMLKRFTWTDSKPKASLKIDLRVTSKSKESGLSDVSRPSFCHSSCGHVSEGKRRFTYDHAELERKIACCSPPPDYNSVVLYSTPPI
Chain of Epidermal growth factor receptor (P00533 whole entry): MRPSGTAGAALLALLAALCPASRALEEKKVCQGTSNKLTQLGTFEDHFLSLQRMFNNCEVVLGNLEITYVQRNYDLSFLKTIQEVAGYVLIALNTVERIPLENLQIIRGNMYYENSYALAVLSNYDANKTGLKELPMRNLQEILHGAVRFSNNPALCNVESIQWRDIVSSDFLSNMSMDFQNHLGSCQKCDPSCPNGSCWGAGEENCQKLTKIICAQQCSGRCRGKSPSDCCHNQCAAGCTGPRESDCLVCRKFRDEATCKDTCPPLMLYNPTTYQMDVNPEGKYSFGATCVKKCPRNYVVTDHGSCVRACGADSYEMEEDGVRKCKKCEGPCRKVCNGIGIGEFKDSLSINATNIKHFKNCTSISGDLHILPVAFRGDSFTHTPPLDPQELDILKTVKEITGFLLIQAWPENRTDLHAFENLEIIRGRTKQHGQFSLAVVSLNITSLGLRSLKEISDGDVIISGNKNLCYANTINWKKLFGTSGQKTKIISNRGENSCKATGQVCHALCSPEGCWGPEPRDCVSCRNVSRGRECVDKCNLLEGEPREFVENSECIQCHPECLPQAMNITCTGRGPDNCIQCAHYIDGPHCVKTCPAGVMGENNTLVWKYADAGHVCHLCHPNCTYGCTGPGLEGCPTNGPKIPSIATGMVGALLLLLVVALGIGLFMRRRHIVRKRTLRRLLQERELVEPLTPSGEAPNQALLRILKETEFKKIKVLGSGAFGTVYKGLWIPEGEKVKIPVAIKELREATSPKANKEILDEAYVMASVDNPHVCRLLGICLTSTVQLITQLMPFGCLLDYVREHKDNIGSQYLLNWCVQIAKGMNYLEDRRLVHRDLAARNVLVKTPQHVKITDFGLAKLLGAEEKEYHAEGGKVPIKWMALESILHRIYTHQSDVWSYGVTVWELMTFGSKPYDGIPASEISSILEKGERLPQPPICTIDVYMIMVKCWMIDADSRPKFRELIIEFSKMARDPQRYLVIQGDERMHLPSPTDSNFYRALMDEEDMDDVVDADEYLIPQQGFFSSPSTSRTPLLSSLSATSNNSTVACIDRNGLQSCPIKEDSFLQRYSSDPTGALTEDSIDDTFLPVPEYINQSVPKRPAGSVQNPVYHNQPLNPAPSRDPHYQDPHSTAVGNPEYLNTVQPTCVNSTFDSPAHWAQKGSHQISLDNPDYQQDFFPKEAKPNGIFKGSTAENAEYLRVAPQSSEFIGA

| IC50 [1] [nM] | IC50 [2] [nM] | IC50 [3] [nM] | IC50 [4] [nM] | IC50 [5] [nM] | Compound | IC50 (HUVEC) [nM] | other results |
| --- | --- | --- | --- | --- | --- | --- | --- |
| 4200 | 200 | 8 | 30 | – | COc1cc2c(Nc3ccc(Cl)cc3F)ncnc2cc1OCCCN1CCCC1.Cl | 5000 | – |
| 1900 | 750 | 40 | 40 | 90 | COc1cc2c(Nc3ccc(Cl)cc3F)ncnc2cc1OC/C=C/CN1CCCC1.Cl | 1000 | – |
| 5000 | 1000 | 60 | 50 | 300 | COc1cc2c(Nc3ccc(Cl)cc3F)ncnc2cc1OCC1CCNCC1.Cl | 5000 | – |
| – | – | 40 | – | 100 | COCCOc1cc2ncnc(Nc3ccc(Cl)cc3F)c2cc1OC | 5000 | concentration at 24 h [6]: < 100 nM; concentration at 6 h [7]: 12000 nM |
| – | – | – | – | – | COc1cc2c(Nc3ccc(Br)cc3F)ncnc2cc1OCCn1ccnn1 [ZD-4190 FREE BASE] | – | fraction unbound [8]: 0.05; IC50 (Angiopoietin-1 receptor): > 100000 nM; IC50 [9]: > 20000 nM; bioavailability [10]: > 80%; IC50 [11]: > 20000 nM; concentration at 6 h [12]: 14000 nM; logD (physchem [13]): 4.6; solubility [14]: 0.7 µM (≈ 0.321 µg/mL); bioavailability [15]: < 5%; fraction unbound [16]: 0.02; concentration at 24 h [17]: 200 nM; CL/F [18]: 8.33 mL/min/kg; IC50 [19]: > 10000 nM; pKa [20]: 5.3; IC50 [21]: > 100000 nM; half-life [22]: 1.3 h; half-life [23]: 1.1 h; IC50 [24]: > 20000 nM; IC50 [25]: > 10000 nM |
| 8000 | 300 | 100 | 30 | 200 | COc1cc2c(Nc3ccc(Cl)cc3F)ncnc2cc1OCCN1CCN(C)CC1 | 10000 | – |
| 2000 | 550 | 30 | 9 | 100 | COc1cc2c(Nc3ccc(Br)cc3F)ncnc2cc1OCCCN1CCN(C)CC1.Cl | > 1000 | – |
| 4100 | 500 | 70 | 55 | 300 | COc1cc2c(Nc3ccc(Cl)cc3F)ncnc2cc1OCCC1CCN(C)CC1 | 3000 | – |
| 1500 | 25 | 30 | 7 | 300 | COc1cc2c(Nc3cc(O)c(C)cc3F)ncnc2cc1OCC1CCN(C)CC1.Cl | 800 | – |
| 1500 | 500 | 100 | 10 | 300 | COc1cc2c(Nc3c(F)cc(Br)cc3F)ncnc2cc1OCC1CCN(C)CC1 | > 1000 | – |
| 1700 | – | – | 25 | – | COc1cc2c(Nc3c(F)cc(Cl)cc3F)ncnc2cc1OCC1CCN(C)CC1 | > 5000 | – |
| 5000 | 500 | 40 | 10 | – | COc1cc2c(Nc3ccc(Br)cc3F)ncnc2cc1OC[C@H]1CCCN(C)C1 | 1000 | – |
| 12300 | 700 | 250 | 30 | 500 | COc1cc2c(Nc3ccc(C)cc3F)ncnc2cc1OCC1CCNCC1 | > 5000 | – |
| – | – | 200 | – | 300 | COc1cc2c(Nc3ccc(Cl)cc3F)ncnc2cc1OCCN(C)c1ccncc1 | 5000 | concentration at 24 h [6]: 2000 nM; concentration at 6 h [7]: 4600 nM |
| 13500 | 500 | 65 | 25 | 1000 | COc1cc2c(Nc3ccc(C)cc3F)ncnc2cc1OCC1CCN(C)CC1 | > 5000 | – |
| 2700 | – | – | 40 | – | COc1cc2c(Nc3ccc(Br)cc3F)ncnc2cc1OCCC1CCNCC1 | 3000 | – |
| 1800 | 700 | 80 | 5 | 100 | COc1cc2c(Nc3ccc(Cl)cc3F)ncnc2cc1OC[C@@H]1CCCN(C)C1 | 5000 | – |
| 4300 | 2000 | 50 | 15 | – | COc1cc2c(Nc3ccc(Cl)cc3F)ncnc2cc1OCC1CCN(C)CC1.Cl | 5000 | – |
| – | – | 300 | – | 400 | COc1cc2c(Nc3ccc(Cl)cc3F)ncnc2cc1OCCN1CCOCC1 | 5000 | concentration at 24 h [6]: 500 nM; concentration at 6 h [7]: 12000 nM |
| 2100 | 650 | 30 | 8 | 100 | COc1cc2c(Nc3ccc(Br)cc3F)ncnc2cc1OC/C=C/CN1CCCC1.Cl | 5000 | – |
| 19000 | 3900 | 500 | 230 | 800 | COc1cc2c(Nc3ccc(C#N)cc3F)ncnc2cc1OC/C=C/CN1CCCC1 | 10000 | – |
| 900 | 20 | 3 | 8 | 100 | COc1cc2c(Nc3cc(O)c(Cl)cc3F)ncnc2cc1OCC1CCN(C)CC1.Cl | 500 | – |
| – | – | – | – | – | COc1cc2/c(=N/c3ccc(Br)cc3F)nc[nH]c2cc1OCC1CCN(C)CC1 | – | SPB (Mus musculus): 96%; SPB (Rattus norvegicus): 90% |
| 1800 | 500 | 60 | 1 | – | COc1cc2c(Nc3ccc(Br)cc3F)ncnc2cc1OC[C@@H]1CCCN(C)C1 | 10000 | concentration at 24 h [26]: 2500 nM; concentration at 6 h [12]: 5500 nM |
| 50000 | 1500 | – | – | – | COc1cc2c(Nc3ccc(Cl)cc3F)ncnc2cc1OC1CCN(C)CC1 | – | – |
| 1900 | 800 | 70 | 15 | 450 | COc1cc2c(Nc3c(F)cc(Br)cc3F)ncnc2cc1OCC1CCNCC1 | 3000 | – |
| 2100 | 600 | 50 | 20 | 75 | COc1cc2c(Nc3ccc(Cl)cc3F)ncnc2cc1OCCCN1CCN(C)CC1.Cl | 5000 | pKa [27]: 7.9; solubility [28]: 60 µM; concentration at 24 h [26]: 3000 nM; concentration at 6 h [12]: 5000 nM; logD (physchem [13]): 2.4 |
| 2100 | – | – | 6 | – | COc1cc2c(Nc3ccc(Br)cc3F)ncnc2cc1OCCC1CCN(C)CC1 | 3000 | concentration at 24 h [26]: 2000 nM; concentration at 6 h [12]: 3000 nM |
| – | – | – | – | – | COc1cc2c(Nc3ccc(Cl)cc3F)ncnc2cc1OCCCN1CCOCC1 | 2000 | solubility [28]: 20 µM (≈ 8.94 µg/mL); logD (physchem [13]): 3.4; concentration at 24 h [6]: 800 nM; concentration at 6 h [7]: 4000 nM; pKa (physchem [29]): 7.2 |
| 2500 | 450 | 100 | 40 | 500 | COc1cc2c(Nc3c(F)cc(Cl)cc3F)ncnc2cc1OCC1CCNCC1 | > 1000 | – |
